Experimental data reported in ChEMBL document CHEMBL4622966, “Synthesis of Novel Ciprofloxacin-Based Hybrid Molecules toward Potent Antimalarial Activity” (ACS Med Chem Lett, 2020).
pIC50: −log10 of the molar value. Activity calls are given as the source filed them. The calls are words filed in the database; no cut-off is given here.

What was measured:
[1] = test system: Erythrocyte; test: Hemolytic activity against human RBC infected with CQ-sensitive Plasmodium falciparum 3D7 at 10 to 45 uM; assay type: ADME, cell-based
[2] = test system: Erythrocyte; test: Hemolytic activity against human RBC infected with CQ-resistant Plasmodium falciparum W2 at 10 to 45 uM; assay type: ADME, cell-based
[3] = test system: Plasmodium falciparum; test: Antimalarial activity against CQ-sensitive Plasmodium falciparum 3D7 infected in human erythrocytes after 48 hrs by SYBR Green1 dye based fluorescence assay; assay type: functional, organism-based; conditions: 3D7, 48 h
[4] = test system: Plasmodium falciparum; test: Antimalarial activity against CQ-sensitive Plasmodium falciparum 3D7 infected in human erythrocytes after 96 hrs by SYBR Green1 dye based fluorescence assay; assay type: functional, organism-based; conditions: 3D7, 96 h
[5] = Lipophilicity, log P of the compound; assay type: physicochemical; conditions: octanol/water
[6] = test system: Erythrocyte; test: Hemolytic activity against uninfected human RBC at 10 to 45 uM; assay type: ADME, cell-based
[7] = test system: Heme; test: Binding affinity to monomeric heme at 100 nM to 4.5 uM after 24 hrs by UV-Visible Spectroscopic analysis
[8] = test system: Plasmodium falciparum; test: Antimalarial activity against CQ-resistant Plasmodium falciparum W2 infected in human erythrocytes after 96 hrs by SYBR Green1 dye based fluorescence assay; assay type: functional, organism-based; conditions: W2, 96 h
[9] = test system: Plasmodium falciparum; test: Antimalarial activity against Plasmodium falciparum infected in human erythrocytes assessed as parasitemia at 1 to 15 uM after 96 hrs by SYBR Green1 dye based fluorescence assay; assay type: functional, organism-based
[10] = test system: Plasmodium falciparum; test: Antimalarial activity against Plasmodium falciparum infected in human erythrocytes assessed as parasitemia at 1 to 15 uM after 48 hrs by SYBR Green1 dye based fluorescence assay; assay type: functional, organism-based
[11] = test system: Plasmodium falciparum; test: Antimalarial activity against CQ-resistant Plasmodium falciparum W2 infected in human erythrocytes after 48 hrs by SYBR Green1 dye based fluorescence assay; assay type: functional, organism-based; conditions: W2, 48 h
[12] = test system: Plasmodium falciparum; test: Binding affinity to Gyrase in Plasmodium falciparum assessed as accumulation of single-stranded DNA binding protein at 15 uM after 96 hrs by Western blot analysis
[13] = test system: Plasmodium falciparum; test: Resistance index, ratio of IC50 for antimalarial activity against CQ-resistant Plasmodium falciparum W2 infected in human erythrocytes after 48 hrs to IC50 for antimalarial activity against CQ-sensitive Plasmodium falciparum 3D7 infected in human erythrocytes after 48 hrs by SYBR Green1 dye based fluorescence assay; assay type: functional
[14] = test system: Plasmodium falciparum; test: Potency index, ratio of ciprofloxacin IC50 to test compound IC50 for antimalarial activity against CQ-sensitive Plasmodium falciparum 3D7 infected in human erythrocytes after 96 hrs by SYBR Green1 dye based fluorescence assay; assay type: functional
[15] = test system: Plasmodium falciparum; test: Potency index, ratio of ciprofloxacin IC50 to test compound IC50 for antimalarial activity against CQ-sensitive Plasmodium falciparum 3D7 infected in human erythrocytes after 48 hrs by SYBR Green1 dye based fluorescence assay; assay type: functional
[16] = test system: Plasmodium falciparum; test: Potency index, ratio of ciprofloxacin IC50 to test compound IC50 for antimalarial activity against CQ-resistant Plasmodium falciparum W2 infected in human erythrocytes after 48 hrs by SYBR Green1 dye based fluorescence assay; assay type: functional
[17] = test system: Plasmodium falciparum; test: Potency index, ratio of chloroquine IC50 to test compound IC50 for antimalarial activity against CQ-resistant Plasmodium falciparum W2 infected in human erythrocytes after 48 hrs by SYBR Green1 dye based fluorescence assay; assay type: functional
[18] = test system: Plasmodium falciparum; test: Potency index, ratio of ciprofloxacin IC50 to test compound IC50 for antimalarial activity against CQ-resistant Plasmodium falciparum W2 infected in human erythrocytes after 96 hrs by SYBR Green1 dye based fluorescence assay; assay type: functional
[19] = test system: Plasmodium falciparum; test: Antimalarial activity against CQ-sensitive Plasmodium falciparum 3D7 assessed as inhibition of parasite growth; assay type: functional, organism-based
[20] = test system: Plasmodium falciparum; test: Antimalarial activity against CQ-resistant Plasmodium falciparum NF54-R assessed as inhibition of parasite growth; assay type: functional, organism-based
[21] = test system: Escherichia coli; test: Toxicity in Escherichia coli DH10B assessed as growth inhibition at 500 nM to 1 uM after 6 hrs; assay type: organism-based, str. K-12 substr. DH10B; conditions: in vivo, 0.5 µM
[22] = test system: Plasmodium falciparum; test: Antimalarial activity against Plasmodium falciparum infected in human erythrocytes assessed as parasitemia at 1 to 10 nM after 48 hrs by SYBR Green1 dye based fluorescence assay; assay type: functional, organism-based
[23] = test system: Plasmodium falciparum; test: Antimalarial activity against Plasmodium falciparum infected in human erythrocytes assessed as parasitemia at 1 to 10 nM after 96 hrs by SYBR Green1 dye based fluorescence assay; assay type: functional, organism-based
[24] = test system: Plasmodium falciparum; test: Antimalarial activity against synchronized schizont stage of Plasmodium falciparum infected in human erythrocytes at 50 to 100 nM; assay type: functional, organism-based
[25] = test system: Plasmodium falciparum; test: Binding affinity to Gyrase in Plasmodium falciparum assessed as accumulation of single-stranded DNA binding protein at 25 nM after 96 hrs by Western blot analysis
[26] = test system: NIH3T3; test: Cytotoxicity against mouse NIH/3T3 cells up to 10 uM after 72 hrs by MTT assay; assay type: cell-based; conditions: nih3t3, 72 h
[27] = test system: Plasmodium falciparum; test: Antiplasmodial activity against Plasmodium falciparum infected in human erythrocytes assessed as reduction in hemozoin size at 50 to 100 nM after 48 hrs by giemsa staining based light microscopic analysis; assay type: functional, organism-based
[28] = test system: Plasmodium falciparum; test: Antimalarial activity against synchronized ring stage of Plasmodium falciparum infected in human erythrocytes at 50 to 100 nM; assay type: functional, organism-based
[29] = test system: Plasmodium falciparum; test: Antiplasmodial activity against Plasmodium falciparum infected in human erythrocytes assessed as reduction in hemozoin size at 30 nM after 48 hrs by giemsa staining based light microscopic analysis; assay type: functional, organism-based
[30] = test system: Heme; test: Binding affinity to monomeric heme after 24 hrs by UV-Visible Spectroscopic analysis

Row | SMILES | Activity [1] | Activity [2] | pIC50 [3] | pIC50 [4] | logP [5] | Activity [6] | pIC50 [8] | pIC50 [11] | pIC50 [19] | pIC50 [20] | other results
1 | CCOC(=O)c1cn(C2CC2)c2cc(N3CCN(c4c5ccc(Cl)cc5nc5ccc(OC)cc45)CC3)c(F)cc2c1=O | Non-Toxic | Non-Toxic | 6.44 | 6.51 | 6.31 | Non-Toxic |  |  |  |  | 
2 | O=C(O)c1cn(C2CC2)c2cc(N3CCNCC3)c(F)cc2c1=O [CIPROFLOXACIN] |  |  | 4.34 | 4.58 |  |  | 4.64 | 4.43 |  |  | Activity [7]: inactive; Activity [9]: Active; Activity [10]: inactive; Activity [12]: Active
3 | CCOC(=O)c1cn(C2CC2)c2cc(N3CCN(S(=O)(=O)c4ccc(C(F)(F)F)cc4)CC3)c(F)cc2c1=O | Non-Toxic | Non-Toxic | 7.42 | 7.83 | 4.29 | Non-Toxic | 7.48 | 6.84 |  |  | Ratio IC50 [13]: 3.88; Ratio IC50 [14]: 1000; Ratio IC50 [15]: 1000; Ratio IC50 [16]: 200 - 700; Ratio IC50 [17]: 7; Ratio IC50 [18]: 200 - 700
4 | COc1c(N2C[C@@H]3CCCN[C@@H]3C2)c(F)cc2c(=O)c(C(=O)O)cn(C3CC3)c12 [MOXIFLOXACIN] |  |  |  |  |  |  |  |  | < 5.00 | < 5.00 | 
5 | CCOC(=O)c1cn(C2CC2)c2cc(N3CCN(c4ccnc5cc(Cl)ccc45)CC3)c(F)cc2c1=O | Non-Toxic | Non-Toxic | 7.59 | 7.87 | 5.02 | Non-Toxic | 7.51 | 7.20 |  |  | Activity [7]: inactive; Activity [21]: Non-Toxic; Activity [22]: Active; Ratio IC50 [13]: 2.47; Activity [23]: Active; Activity [24]: Active; Ratio IC50 [14]: 1000; Activity [25]: inactive; Ratio IC50 [15]: 1000; Ratio IC50 [16]: 200 - 700; Activity [26]: Non-Toxic; Ratio IC50 [17]: 3; Activity [27]: inactive; Activity [28]: Active; Ratio IC50 [18]: 200 - 700
6 | COc1c(N2CCNC(C)C2)c(F)cc2c(=O)c(C(=O)O)cn(C3CC3)c12 (stereo not given) [GATIFLOXACIN] |  |  |  |  |  |  |  |  | < 5.00 | < 5.00 | 
7 | CCOC(=O)c1cn(C2CC2)c2cc(N3CCN(C(=O)/C=C/c4ccccc4)CC3)c(F)cc2c1=O | Non-Toxic | Non-Toxic | 5.04 | 5.32 | 3.81 | Non-Toxic |  |  |  |  | 
8 | Cc1c(F)c(N2CCNC(C)C2)cc2c1c(=O)c(C(=O)O)cn2C1CC1 (stereo not given) [GREPAFLOXACIN] |  |  |  |  |  |  |  |  | < 5.00 | < 5.00 | 
9 | CCN(CC)CCCC(C)Nc1ccnc2cc(Cl)ccc12 (stereo not given) |  |  |  |  |  |  |  |  |  |  | Activity [29]: Active; Activity [30]: Dose-dependent effect
